Measured values as given in the PolyMetriX glass transition set.
± gives the standard deviation of the reports.

SMILES	glass transition temperature [°C]
*OC(=O)NC1CCC(CC2CCC(NC(=O)OC3CC4CC(*)CC(C3)O4)CC2)CC1 (repeat unit)	225.00
*CC(C[N-][N+]#N)O* (repeat unit)	-35.00
*c1ccc2c(c1)C(=O)N(c1ccc(C(c3ccccc3)(c3ccc(N4C(=O)c5ccc(C(*)(C(F)(F)F)C(F)(F)F)cc5C4=O)cc3)C(F)(F)F)cc1)C2=O (repeat unit)	305.00
*O[Si](C)(C)CCC/N=C1C=C/C(=N/CCC[Si](*)(C)C)c2c(O)ccc(O)c2\1 (repeat unit)	32.90
*CC(*)Cc1ccccc1C (repeat unit)	80.00
*C#Cc1cccc(C#C[SiH2]*)c1 (repeat unit)	72.00
*CCOc1ccc(/C=C2\CC/C(=C\c3ccc(OCCOP(=O)(O*)OC)c(OC)c3)C2=O)cc1OC (repeat unit)	99.00
*c1cc(CCCCBr)c(*)s1 (repeat unit)	19.00
*C(=O)Nc1c(C)cc(Cc2cc(C)c(NC(=O)c3ccc4c(c3)C(=O)N(c3ccc(/N=N/c5ccc([N+](=O)[O-])cc5)c(N5C(=O)c6ccc(*)cc6C5=O)c3)C4=O)c(C)c2)cc1C (repeat unit)	280.00
*CC(C)CCC(C)CNC(=O)c1cc(C(=O)N*)cc(C(C)(C)C)c1 (repeat unit)	149.00
*c1ccc(-c2ccc(-c3nc4ccc(-c5ccc6nc(*)c(-c7ccccc7)nc6c5)cc4nc3-c3ccccc3)cc2)cc1 (repeat unit)	404.00
*c1ccc(CC(=O)Nc2ccc(Cc3ccc(NC(=O)Cc4ccc(-c5sc(*)c(-c6ccccc6)c5-c5ccccc5)cc4)cc3)cc2)cc1 (repeat unit)	227.00
*O[Si](*)(C)CC (repeat unit)	-133.00
*CC(*)c1ccc(OC)cc1 (repeat unit) [Poly(p-methoxy styrene) ]	89 ± 12
*Oc1ccc(N[Se]Nc2ccc(*)cc2)cc1 (repeat unit)	55.00
*c1ccc(N2C(=O)c3ccc(Oc4ccc(Oc5ccc(P(=O)(c6ccccc6)c6ccc(Oc7ccc(Oc8ccc9c(c8)C(=O)N(*)C9=O)cc7)cc6)cc5)cc4)cc3C2=O)cc1 (repeat unit)	220.00
*CCCCCCCCCCCCCCNC(=O)NCCCCCCNC(=O)N* (repeat unit)	47.00
*C1CCOC1* (repeat unit)	131.00
*CCN(*)C(=O)c1ccc(F)c(F)c1 (repeat unit)	101.00
*CCCCOC(=O)NNC(=O)CCCCCCCCC(=O)NNC(=O)O* (repeat unit)	56.00

Second part, the molecule after the results:

glass transition temperature [°C]	SMILES
350.00	*c1ccc(Oc2ccc(-c3nc4cc5sc(*)nc5cc4s3)cc2)cc1 (repeat unit)
315.00	*c1ccc(Oc2c(C)cc(C(c3cc(C)c(Oc4ccc(-n5c(=O)c6cc7c(=O)n(*)c(=O)c7cc6c5=O)cc4)c(C)c3)c3cccc4ccccc34)cc2C)cc1 (repeat unit)
270.00	*C(=O)c1ccc2c(c1)C(=O)N(c1ccc(N(c3ccccc3)c3ccc(N4C(=O)c5ccc(*)cc5C4=O)cc3)cc1)C2=O (repeat unit)
175.00	*Oc1ccc(C2(c3ccc(OC(*)=O)cc3)CCCCC2)cc1 (repeat unit)
282.00	*C(=O)c1ccc2c(c1)C(=O)N(c1ccc(C(c3ccccc3)c3ccc(N4C(=O)c5ccc(*)cc5C4=O)cc3)cc1)C2=O (repeat unit)
38.00	*O[Si](*)(C)CCCOc1ccc(-c2ccc(C#N)cc2)cc1 (repeat unit)
74.00	*CC(*)c1cc(C(=O)OCCCC)ccc1-c1ccc(OCCCCCCCC)cc1 (repeat unit)
247.00	*c1ccc(Oc2ccc(Oc3ccc(N4C(=O)c5ccc(-c6ccc7c(c6)C(=O)N(*)C7=O)cc5C4=O)cc3)c(-c3ccccc3)c2)cc1 (repeat unit)
141.00	*OS(=O)(=O)c1cc(S(=O)(=O)Oc2ccc(C3(c4ccc(*)c(C)c4)CCCCC3)cc2C)ccc1C (repeat unit)
66.00	*Oc1ccc(/N=C/CCC/C=N/c2ccc(OC(=O)NC3CC(C)(C)CC(C)(CNC(*)=O)C3)cc2)cc1 (repeat unit)
28.00	*Oc1ccc(CC(NC(=O)Cc2ccc(OC(=O)CCCCC(*)=O)cc2)C(=O)OCCCCCCCC)cc1 (repeat unit)
110.00	*CC(*)(C)C(=O)OCCCCCCOc1ccc(/N=N/c2ccc(OCCCCCCCCCC)cc2)cc1 (repeat unit)
208.00	*c1cccc(Cc2cccc(N3C(=O)c4ccc([Si](C)(C)O[Si](C)(C)O[Si](C)(C)c5ccc6c(c5)C(=O)N(*)C6=O)cc4C3=O)c2)c1 (repeat unit)
348.00	*c1ccc(C)c(N2C(=O)c3ccc(S(=O)(=O)c4ccc5c(c4)C(=O)N(*)C5=O)cc3C2=O)c1 (repeat unit)
184.50	*Oc1ccc(-c2ccc(OC(=O)c3ccc(C(=O)c4ccc(C(*)=O)cc4)cc3)c(-c3ccccc3)c2)cc1-c1ccccc1 (repeat unit)
142.00	*c1cccc(OCCCCCCCCOc2cccc(N3C(=O)c4ccc(-c5cccc6c5C(=O)N(*)C6=O)cc4C3=O)c2)c1 (repeat unit)
300.00	*c1ccc(Oc2ccc(-c3ccc(Oc4ccc(-n5c(=O)c6cc7c(=O)n(*)c(=O)c7cc6c5=O)cc4)cc3)cc2)cc1 (repeat unit)
255.50	*Oc1ccc(NC(=O)c2cc(C(=O)Nc3ccc(Oc4ccc(C(c5ccc(*)cc5)(C(F)(F)F)C(F)(F)F)cc4)cc3)cc(C(C)(C)C)c2)cc1 (repeat unit)
235.00	*C(=O)Nc1cccc(Oc2ccc(S(=O)(=O)c3ccc(Oc4cccc(NC(=O)c5ccc(N6C(=O)c7ccc(*)cc7C6=O)cc5)c4)cc3)cc2)c1 (repeat unit)
238.40	*NNC(=O)/C=C/C(=O)Nc1cccc(/C=C2\CCC/C(=C\c3cccc(NC(=O)/C=C/C(*)=O)c3)C2=O)c1 (repeat unit)
110.00	*CCCCCC(=O)Oc1ccc(C(C)(C)c2ccc(OC(=O)c3ccc4c(c3)C(=O)N(*)C4=O)cc2)cc1 (repeat unit)
115.00	*CC(*)c1cc(C(=O)Oc2ccc(OC)cc2)ccc1C(=O)Oc1ccc(OC)cc1 (repeat unit)
186.00	*Oc1ccc(Oc2ccc(C(=O)c3ccc(-c4ccc(C(=O)c5ccc(*)cc5)cc4)cc3)cc2)cc1-c1ccccc1 (repeat unit)
334.00	*Oc1ccc(C(C)(C)c2ccc(Oc3ccc4c(=O)n5c6cc(Oc7ccc8c(c7)nc7c9ccc(*)c%10cccc(c(=O)n87)c%109)ccc6nc5c5cccc3c45)cc2)cc1 (repeat unit)
42.00	*CC(*)(C)C(=O)OCCCCCCOc1ccc(/N=N/c2ccncc2)cc1 (repeat unit)
41.00	*CC(*)(C)C(=O)OCCCCCCOc1ccc(C(=O)Oc2ccc(/N=N/c3ccc(C#N)cc3)c3ccccc23)cc1 (repeat unit)
345.00	*CC(=O)Nc1ccc(C2(c3ccc(NC(=O)c4ccc5c(c4)C(=O)N(*)C5=O)cc3)c3ccccc3-c3ccccc32)cc1 (repeat unit)
